The record followed here is patent US9051339B2, “Sulfur-containing bicyclic compound” (Astellas Pharma Inc., priority 2013, dated 2015).

In one experiment the target is T1, GABAB receptor (Mus musculus, UniProt Q80T41+Q9WV18).
T1 construct: a mouse brain cortex membrane (4 μg); tissue Japan SLC, Inc. (ddY mice); host or cells: mouse brain cortex membrane
Put plainly: [35S]GTPγS binding test for PAM action, mouse brain cortical membrane. Type of experiment: biochemical. The settings on record: 100 μM GABA = 100%; for EC50: concentration raising reaction rate from 20% with 0.3 μM GABA to 50%, mouse brain cortex membrane, read-out: Potency (PAM Potency of GABAB). As to the method: The function of the GABAB receptor of the compound of the present invention was evaluated using a [^35S] GTPγS binding test. This method is used for the detection of the PAM action of the compound on the GABAB receptor (Journal of Pharmacology and Experimental Therapeutics, 2003, vol. 307(1), p. 322-330; and Molecular Pharmacology, 2001, vol. 60(5), p. 963-971).
The mouse brain cortical membrane was prepared with reference to a method for preparing a rat brain membrane (European Journal of Pharmacology, 1990, vol. 187 (1), p. 27-38).
The cortex (about 30 g) was cut out of the brains of 90 ddY mice (Japan SLC, Inc.). An A buffer was added to the cortex (cortex/A buffer=about 1:3 (wt/vol)), and homogenized with a glass Teflon-lined homogenizer (Teflon: registered trademark) on ice. The homogenate was centrifuged (750 g, 10 min, 4° C.) and a supernatant was then obtained. An A buffer (90 mL) was added to pellets and homogenized on ice, and a supernatant (750 g, 10 min, 4° C.) was then obtained. By repeating this operation, the supernatant was collected.
The supernatant was centrifuged (18000 g, 15 min, 4° C.). Ultrapure water (54 mL) was added to the pellets, left to stand for 30 min on ice, and then centrifuged (39000 g, 20 min, 4° C.). The pellets were suspended in a KH buffer (54 mL), repeatedly frozen and thawed, and centrifuged (18000 g, 15 min) at 4° C. The buffer was added to the pellets and then frozen and thawed, and this operation was repeated until the centrifugation. By a Bradford method using a protein assay (Protein assay CBB solution; Nacalai Tesque, Inc.), a KH buffer suspension of the pellet was prepared at a protein concentration of 10 mg/mL.
The PAM action of the GABAB receptor in the mouse brain cortex of a test drug was evaluated. To each of wells of a 96-well microplate, a test drug diluted with a B buffer at each concentration (3 nM to 30 μM), a mouse brain cortex membrane (4 μg), [^35S] GTPγS (final concentration of 0.34 nM, Muromachi Yakuhin Co., Ltd.; Institute of Isotopes Co., Ltd.), GABA (final concentration of 0.3 μM; Sigma) were added in this order, followed by standing at room temperature for 1 hour. With a harvester (Filtermate, Perkin-Elmer, Inc.), the suspension was suction-filtered through a glass filter (UniFilter 96-well GF/B filter plates, Perkin-Elmer, Inc.). The glass filter was washed with a C buffer that had been ice-cooled. After drying the glass filter, a liquid scintillation cocktail (50 μL, MicroScinti-PS; PerkinElmer, Inc.) was added to each well. The amount of [^35S] GTPγS bound to the membrane was measured on a plate reader (TopCount, PerkinElmer, Inc.).
The maximum reaction rate of 100 μM GABA was taken as 100%. […] At a time when the test drug was not added, the concentration of the test drug that increased the reaction rate from 20% with 0.3 μM GABA to 50% was taken as a PAM Potency (μM) of the GABAB of the test drug. In the presence of 0.3 μM GABA, the maximum reaction rate of the effect on the GABAB receptor when the test drug was administered up to maximum 30 μM was taken as a PAM Efficacy (%) of the GABAB of the test drug.
The Potency and Efficacy of several representative Example Compounds of the present invention are shown in Table below (In the Table, Ex represents Example Compound No. The “Potency” represents the PAM Potency of GABAB of the test drug, and the “Efficacy” represents PAM Efficacy (%) of GABAB of the test drug. These shall apply hereinafter).
For orientation: GTPγS resists hydrolysis and so accumulates on activated G proteins.

Experiment [1] deals with spontaneous alternation behavior (short-term memory impairment). Kind of experiment: Y-maze test: improvement effect on MK-801-induced cognitive impairment. In kind it is in vivo, mouse. The note with it: oral, once, 30 minutes before test; ddY male mice; MK-801 0.15 mg/kg i.p.; spontaneous alternation rate. The protocol: The effect on the improvement of short-term memory impairment of the compound of the present invention was evaluated using a Y-maze test that is an experimental system of spontaneous alternation behavior.
As the Y maze, a maze, in which three runways having a length of one arm of 40 cm, a height of a wall of 13 cm, a width of a floor of 3 cm, and a width of a top of 10 cm are each joined at 120 degrees in a Y shape, was used. […]
The mouse was placed at one end of a certain place in the runway in the Y maze, and then freely explored for 8 minutes, and the runways into which the mice invaded and the order thereof were recorded. The number of the entries of the mice within a measurement time was counted and defined as a total number of entries. Among these, a combination when the mice invaded into different three runways (for example, in a case where the three arms are referred to as a, b, and c, respectively, and the order of the arms with entries is abccbacab, the number was counted as 4, including the repetition) was defined as the number of spontaneous alternation behaviors. For the spontaneous alternation rate, a spontaneous alternation rate calculated by the following equation was taken as an index of spontaneous alternation behavior: Spontaneous alternation rate=number of spontaneous alternation behaviors/(total number of entries−2)×100. […]

SMILES strings stand for the structures.

T1 sequence (Q9WV18 20-960): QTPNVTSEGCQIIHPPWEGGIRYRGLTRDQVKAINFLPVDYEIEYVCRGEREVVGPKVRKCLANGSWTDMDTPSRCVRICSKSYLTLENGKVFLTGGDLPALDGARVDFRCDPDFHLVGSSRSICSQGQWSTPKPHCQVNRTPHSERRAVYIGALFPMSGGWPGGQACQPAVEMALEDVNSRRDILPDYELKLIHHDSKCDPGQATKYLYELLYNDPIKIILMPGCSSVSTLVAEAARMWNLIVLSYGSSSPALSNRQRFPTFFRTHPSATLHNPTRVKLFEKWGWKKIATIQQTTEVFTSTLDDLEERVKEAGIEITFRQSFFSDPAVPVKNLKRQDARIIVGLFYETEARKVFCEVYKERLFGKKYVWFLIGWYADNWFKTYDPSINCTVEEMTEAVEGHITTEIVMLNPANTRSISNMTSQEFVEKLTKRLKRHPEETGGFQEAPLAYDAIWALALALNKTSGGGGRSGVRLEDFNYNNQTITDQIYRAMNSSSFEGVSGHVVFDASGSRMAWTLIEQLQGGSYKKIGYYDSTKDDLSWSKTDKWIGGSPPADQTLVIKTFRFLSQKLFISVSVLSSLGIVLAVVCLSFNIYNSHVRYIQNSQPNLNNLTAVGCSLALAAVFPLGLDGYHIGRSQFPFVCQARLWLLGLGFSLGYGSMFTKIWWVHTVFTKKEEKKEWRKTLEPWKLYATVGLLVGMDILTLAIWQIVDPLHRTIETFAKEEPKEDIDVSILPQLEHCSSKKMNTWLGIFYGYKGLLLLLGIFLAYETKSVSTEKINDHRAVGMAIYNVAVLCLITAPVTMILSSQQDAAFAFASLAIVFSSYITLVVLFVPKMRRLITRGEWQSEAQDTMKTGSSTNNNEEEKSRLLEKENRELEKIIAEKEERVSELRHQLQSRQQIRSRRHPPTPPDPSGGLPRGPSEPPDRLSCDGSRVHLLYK
T1 sequence (Q80T41 41-940): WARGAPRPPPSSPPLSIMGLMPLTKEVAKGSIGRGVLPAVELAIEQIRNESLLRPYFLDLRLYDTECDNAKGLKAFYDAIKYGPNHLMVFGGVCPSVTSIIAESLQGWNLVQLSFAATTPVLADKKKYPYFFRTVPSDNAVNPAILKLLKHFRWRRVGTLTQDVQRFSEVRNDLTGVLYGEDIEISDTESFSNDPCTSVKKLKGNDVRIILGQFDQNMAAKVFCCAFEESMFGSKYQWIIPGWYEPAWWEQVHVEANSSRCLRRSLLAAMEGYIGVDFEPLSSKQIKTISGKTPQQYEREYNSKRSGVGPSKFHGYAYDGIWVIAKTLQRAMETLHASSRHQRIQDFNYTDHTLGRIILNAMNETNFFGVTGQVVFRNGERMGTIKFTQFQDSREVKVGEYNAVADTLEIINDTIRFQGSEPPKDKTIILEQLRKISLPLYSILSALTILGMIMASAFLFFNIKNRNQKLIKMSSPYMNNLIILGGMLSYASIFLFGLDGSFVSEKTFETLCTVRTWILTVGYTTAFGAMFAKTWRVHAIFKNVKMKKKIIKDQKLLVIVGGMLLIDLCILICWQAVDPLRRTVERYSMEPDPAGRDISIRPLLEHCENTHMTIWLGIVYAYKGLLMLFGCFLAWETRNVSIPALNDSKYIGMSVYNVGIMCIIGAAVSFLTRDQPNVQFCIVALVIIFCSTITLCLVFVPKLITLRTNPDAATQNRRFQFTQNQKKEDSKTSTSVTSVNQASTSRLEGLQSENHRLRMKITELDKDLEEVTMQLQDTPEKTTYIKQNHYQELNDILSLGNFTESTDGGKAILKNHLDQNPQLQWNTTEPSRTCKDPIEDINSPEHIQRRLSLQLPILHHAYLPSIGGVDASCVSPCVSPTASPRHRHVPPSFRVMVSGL

As for `Cc1nc(CN2CC[C@@H](O)[C@H](O)C2)c2cc(C3CCC(C)(C)CC3)sc2n1` (single isomer, unassigned) [Ex31, trans-1-{[6-(4,4-dimethylcyclohexyl)-2-methylthieno[2,3-d]pyrimidin-4-yl]methyl}piperidine-3,4-diol], on GABAB receptor, the EC50 turned out to be 110 nM. For the same compound, the “Efficacy (PAM Efficacy of GABAB)” value on GABAB receptor (maximum reaction rate in presence of 0.3 μM GABA, test drug up to 30 μM) was determined as 300%. The MED in experiment [1] was 1.0 mg/kg.
Regarding `Cc1nc(CN2CCS(=O)(=O)CC2)c2cc(C3CCC(C)(C)CC3)sc2n1` [Ex2, 6-(4,4-dimethylcyclohexyl)-4-[(1,1-dioxidothiomorpholin-4-yl)methyl]-2-methylthieno[2,3-d]pyrimidine], the EC50 on GABAB receptor worked out at 110 nM. The Emax on GABAB receptor (maximum reaction rate in presence of 0.3 μM GABA, test drug up to 30 μM, read-out: Efficacy (PAM Efficacy of GABAB)) turned out to be 207%. Also, the MED in experiment [1] was found to be 0.1 mg/kg.
